Consider 4 molecules from PMC7822176, “Pursuing the Complexity of Alzheimer’s Disease: Discovery of Fluoren-9-Amines as Selective Butyrylcholinesterase Inhibitors and N-Methyl-D-Aspartate Receptor Antagonists” (Biomolecules, 2020).

One series has as its target T1, GluN1/GluN2B receptors (Homo sapiens, UniProt Q05586+Q13224).
T1 construct: expressed in transfected cells; host or cells: HEK293
The experiment in a line: cell-based. As to conditions: for inhibition at 10 µM: HEK293, read-out: RI (%) ± SEM GluN1/GluN2B. On the procedure:
(§1) The cells grown in a 24-well plate were put in Opti-MEM I media containing a mixture of 0.9 µL of MATra-A Reagent (IBA) and 900 ng of DNA vectors carrying the human versions of the GluN1-1a (GluN1), GluN2A, or GluN2B subunits and green fluorescent protein (GFP; all vectors were added in equal ratio). The cells were placed on a strong magnet plate for 30 min and then trypsinized; resuspended in Opti-MEM I containing 1% FBS, 20-mM MgCl2, and 3-mM kynurenic acid (to inhibit the NMDAR-induced excitotoxicity); and plated on poly-L-lysine-coated glass coverslips. The electrophysiological experiments were executed 24–48 h after transfection.
(§2) Whole-cell patch-clamp recordings were conducted at room temperature on the GFP-positive HEK293 cells using an Axopatch 200B amplifier (Molecular Devices, San Jose, CA, USA); the series resistance compensation was >80% for all cells. […] The WAS02 application system, which can reach the solution exchange time around the recorded cell of 10–20 ms, was used to apply the extracellular solution (ECS).

In the next series the target is T2, GluN1/GluN2A receptors (Homo sapiens, UniProt Q05586+Q12879).
T2 construct: expressed in transfected cells; host or cells: HEK293
The series is described as follows: cell-based. As to conditions: for inhibition at 10 µM: HEK293, read-out: RI (%) ± SEM GluN1/GluN2A. The procedure: as §1, §2

The nature of series [1]: MTT cell viability assay, CHO-K1. The settings on record: Chinese hamster, CHO-K1 cells, 24 h exposure, mean of three independent measurements, read-out: IC50 ± SEM CHO-K1 cell viability. In kind it is cell-based. On the procedure:
(§3) Standard MTT assay (3-(4,5-dimethylthiazol-2-yl)-2,5-diphenyltetrazolium bromide; Sigma Aldrich, Prague, Czech Republic) was used according to the manufacturer’s protocols on the CHO-K1 (Chinese hamster ovary, ECACC, Salisbury, UK) and hCMEC/D3 (Sigma Aldrich, St. Louis, MO, USA). The cells were cultured according to recommended conditions and seeded in a density of 8000 cells per well, as described previously. […] CHO-K1 cells were exposed to serially diluted tested compounds for 24 h. Then, the medium was replaced by a fresh medium containing 0.5 mg/mL of MTT, and the cells were allowed to produce formazan for another approximately 3 h under surveillance. Thereafter, the medium with MTT was removed, and crystals of formazan were dissolved in DMSO (100 µL/well; PENTA s.r.o., Prague, Czech Republic). Cell viability was assessed spectrophotometrically by the amount of formazan produced. The absorbance was measured at 570 nm with a 650-nm reference wavelength on Synergy HT (BioTek, Winooski, VT, USA). The IC50 value (half-maximal inhibitory concentration) was calculated from the control-subtracted triplicates using nonlinear regression (four parameters) by GraphPad Prism 7.03 software (GraphPad Software Inc., San Diego, CA, USA) for the CHO-K1 cell line, and for hCMEC/D3 cells, the cell viability was expressed as the % relative to the untreated control. Final IC50 and SEM (standard error of the mean) values were obtained as a mean of three independent measurements.
A general note: Tetrazolium dyes change colour on reduction, which living cells bring about.

For series [2], the target named is T3, hBChE (Homo sapiens, UniProt P06276).
T3 construct: made in house
The experiment in a line: biochemical. Format: biochemical. The settings on record: for IC50: mean of at least three experiments, read-out: IC50 ± SEM hBChE. The procedure: The human recombinant BChE and AChE were prepared at the Department of Toxicology and Military Pharmacy (Faculty of Military Health Sciences, Hradec Kralove, Czech Republic). 5,5′-dithiobis(2-nitrobenzoic acid) (Ellman’s reagent, DTNB), phosphate buffer (PB, pH 7.4), acetylthiocholine (ATC), and butyrylthiocholine (BTC) were purchased from Sigma-Aldrich, Prague, Czech Republic. For measuring purposes, polystyrene Nunc 96-well microplates with a flat bottom shape (Thermo Fisher Scientific, Waltham, MA, USA) were utilized. All the assays were carried out in 0.1-M KH2PO4/K2HPO4 buffer, pH 7.4. Enzyme solutions were prepared at 2.0 units/mL in 2-mL aliquots. […] Tested compounds were preincubated for 5 min. The reaction was started by the immediate addition of 20 µL of the substrate. […] Each concentration was assayed in triplicate. Software GraphPad Prism 5 (San Diego, CA, USA) was used for the statistical data evaluation.

The nature of series [3]: MTT cell viability test, hCMEC/D3. In kind it is cell-based. As to conditions: human, read-out: % viable cells hCMEC/D3. On the procedure: as §3, with “The IC50 value (half-maximal inhibitory concentration) was calculated from the control-subtracted triplicates using nonlinear regression (four parameters) by GraphPad Prism 7.03 software (GraphPad Software Inc., San Diego, CA, USA) for the CHO-K1 cell line, and for hCMEC/D3 cells, the cell viability was expressed as the % relative to the untreated control.” left out

The nature of the next series: in vitro. The settings on record: human. The procedure: (§4) The D3 assay evaluates the ability of compounds to diffuse from the donor compartment through the D3/hCMEC cell membrane into the acceptor compartment. The D3 cells were seeded on a PET membrane (area 1.12 cm^2) with 3-µm pores of the 12-well plates with 12-mm inserts. […] The donor solution (750 µL) was added to the donor compartment (insert), and the same volume of Opti-MEM was added into the acceptor. The concentration of the drug in both compartments was measured by UV-VIS spectrophotometry in 5, 15, 30, and 60 min of incubation in triplicates. The apparent permeability coefficient (Papp) was calculated from the concentration ratios. Tightness of the D3 monolayer was conducted by the fluorescein isothiocyanate (FITC) test after each experiment. […] (1) Papp= dC/dt × Vr/A × C0 • A: area of the well/cell monolayer, • dC/dt: amount in the receiver compartment in given time, • Vr: volume of the receiver compartment, and • C0: the initial concentration of tested compounds.

The next series relates to hCMEC/D3 cell monolayer. The series is described as follows: in vitro. The settings on record: for potential of BBB permeation (in words): Papp correlated to reference drugs. The procedure: as §4
Series [4] concerns the target T3, hBChE. The series is described as follows: Kinetic study of hBChE inhibition. In kind it is biochemical. On the procedure: The kinetic study of hBChE was performed by using the above-mentioned modified Ellman’s method. The values of Vmax and Km of the Michaelis-Menten kinetics, as well as the value of Ki, were calculated by nonlinear regression from the substrate velocity curves. Linear regression was used for calculation of the Cornish-Bowden plots. All calculations were performed using GraphPad Prism software version 6.07 for Windows (San Diego, CA, USA).

For a further series, the target named is NMDA receptor. The settings on record: read-out: IC50 inhibition of NMDA receptor responses; at −60 mV; cited from earlier work.
The mark [5] stands for this setting: 40 mV, read-out: IC50 40 mV GluN1/GluN2B.
[6] abbreviates: −60 mV, read-out: IC50 −60 mV GluN1/GluN2B.
Where [7] appears, read: 40 mV, read-out: IC50 40 mV GluN1/GluN2A.
[8] abbreviates: −60 mV, read-out: IC50 −60 mV GluN1/GluN2A.
Setting [9] is: final prediction from Papp correlated to reference drugs.

As usually defined, the Papp is a coefficient for how fast a substance crosses the barrier. Read a low Papp as slow passage. In general, Ki refers to a dissociation constant, usually derived from enzyme kinetics or from competition with a known ligand. A higher Ki goes with weaker binding.

Like-named read-outs stand apart in the source and are kept apart here.

T1 sequence (Q13224 27-1484, other chains not shown): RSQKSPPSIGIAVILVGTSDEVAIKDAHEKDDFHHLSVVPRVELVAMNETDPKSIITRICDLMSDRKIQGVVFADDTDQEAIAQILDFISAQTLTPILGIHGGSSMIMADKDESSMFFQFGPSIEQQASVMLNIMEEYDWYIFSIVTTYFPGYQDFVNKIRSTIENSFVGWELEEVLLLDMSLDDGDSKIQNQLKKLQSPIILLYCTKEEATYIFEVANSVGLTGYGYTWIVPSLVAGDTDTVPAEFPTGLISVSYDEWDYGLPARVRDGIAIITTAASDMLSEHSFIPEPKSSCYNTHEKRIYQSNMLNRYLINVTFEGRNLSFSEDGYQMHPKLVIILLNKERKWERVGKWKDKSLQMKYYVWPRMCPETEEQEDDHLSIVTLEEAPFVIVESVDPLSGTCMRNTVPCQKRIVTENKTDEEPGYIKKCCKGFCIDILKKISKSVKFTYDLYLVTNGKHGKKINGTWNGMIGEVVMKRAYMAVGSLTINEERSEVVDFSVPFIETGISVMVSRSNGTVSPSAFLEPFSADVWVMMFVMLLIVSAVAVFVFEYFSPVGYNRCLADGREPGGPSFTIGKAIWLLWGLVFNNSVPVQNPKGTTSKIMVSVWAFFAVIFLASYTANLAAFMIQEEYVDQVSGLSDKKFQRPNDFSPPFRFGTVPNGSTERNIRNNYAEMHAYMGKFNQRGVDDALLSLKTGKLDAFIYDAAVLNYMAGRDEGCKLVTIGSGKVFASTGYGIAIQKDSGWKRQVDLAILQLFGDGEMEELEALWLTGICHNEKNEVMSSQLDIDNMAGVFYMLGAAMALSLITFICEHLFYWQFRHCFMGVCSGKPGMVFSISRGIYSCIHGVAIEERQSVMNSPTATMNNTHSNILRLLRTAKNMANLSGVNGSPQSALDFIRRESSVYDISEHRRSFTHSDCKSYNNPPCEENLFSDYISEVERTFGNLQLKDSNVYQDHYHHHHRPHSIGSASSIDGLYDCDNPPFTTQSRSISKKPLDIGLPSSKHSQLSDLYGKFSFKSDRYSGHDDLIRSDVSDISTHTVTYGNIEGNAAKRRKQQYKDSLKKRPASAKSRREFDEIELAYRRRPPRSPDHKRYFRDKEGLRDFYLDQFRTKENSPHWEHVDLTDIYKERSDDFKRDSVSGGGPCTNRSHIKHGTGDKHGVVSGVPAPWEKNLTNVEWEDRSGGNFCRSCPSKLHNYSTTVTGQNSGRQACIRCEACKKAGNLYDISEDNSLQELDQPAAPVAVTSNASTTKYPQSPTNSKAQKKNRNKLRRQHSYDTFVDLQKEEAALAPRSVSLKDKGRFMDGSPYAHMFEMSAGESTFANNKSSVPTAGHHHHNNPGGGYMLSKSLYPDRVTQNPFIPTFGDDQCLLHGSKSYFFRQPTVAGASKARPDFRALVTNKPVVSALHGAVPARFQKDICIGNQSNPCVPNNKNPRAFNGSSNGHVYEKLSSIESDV
T3 sequence (P06276 29-602): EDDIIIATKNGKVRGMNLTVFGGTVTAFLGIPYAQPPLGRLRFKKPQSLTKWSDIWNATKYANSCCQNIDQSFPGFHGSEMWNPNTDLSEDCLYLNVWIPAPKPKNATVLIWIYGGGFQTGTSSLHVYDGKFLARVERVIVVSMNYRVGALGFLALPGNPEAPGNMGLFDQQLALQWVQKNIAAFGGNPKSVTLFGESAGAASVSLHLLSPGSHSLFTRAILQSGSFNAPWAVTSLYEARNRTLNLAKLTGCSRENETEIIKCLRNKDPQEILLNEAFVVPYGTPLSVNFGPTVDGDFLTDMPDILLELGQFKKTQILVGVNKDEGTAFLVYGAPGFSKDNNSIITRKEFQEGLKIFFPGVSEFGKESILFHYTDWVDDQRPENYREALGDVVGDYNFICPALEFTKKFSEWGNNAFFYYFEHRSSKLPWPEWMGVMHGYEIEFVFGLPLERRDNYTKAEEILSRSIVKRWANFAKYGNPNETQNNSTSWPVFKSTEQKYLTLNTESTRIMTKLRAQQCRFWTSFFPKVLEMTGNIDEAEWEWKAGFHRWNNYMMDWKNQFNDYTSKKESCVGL
T2 sequence (Q12879 23-1464, other chains not shown): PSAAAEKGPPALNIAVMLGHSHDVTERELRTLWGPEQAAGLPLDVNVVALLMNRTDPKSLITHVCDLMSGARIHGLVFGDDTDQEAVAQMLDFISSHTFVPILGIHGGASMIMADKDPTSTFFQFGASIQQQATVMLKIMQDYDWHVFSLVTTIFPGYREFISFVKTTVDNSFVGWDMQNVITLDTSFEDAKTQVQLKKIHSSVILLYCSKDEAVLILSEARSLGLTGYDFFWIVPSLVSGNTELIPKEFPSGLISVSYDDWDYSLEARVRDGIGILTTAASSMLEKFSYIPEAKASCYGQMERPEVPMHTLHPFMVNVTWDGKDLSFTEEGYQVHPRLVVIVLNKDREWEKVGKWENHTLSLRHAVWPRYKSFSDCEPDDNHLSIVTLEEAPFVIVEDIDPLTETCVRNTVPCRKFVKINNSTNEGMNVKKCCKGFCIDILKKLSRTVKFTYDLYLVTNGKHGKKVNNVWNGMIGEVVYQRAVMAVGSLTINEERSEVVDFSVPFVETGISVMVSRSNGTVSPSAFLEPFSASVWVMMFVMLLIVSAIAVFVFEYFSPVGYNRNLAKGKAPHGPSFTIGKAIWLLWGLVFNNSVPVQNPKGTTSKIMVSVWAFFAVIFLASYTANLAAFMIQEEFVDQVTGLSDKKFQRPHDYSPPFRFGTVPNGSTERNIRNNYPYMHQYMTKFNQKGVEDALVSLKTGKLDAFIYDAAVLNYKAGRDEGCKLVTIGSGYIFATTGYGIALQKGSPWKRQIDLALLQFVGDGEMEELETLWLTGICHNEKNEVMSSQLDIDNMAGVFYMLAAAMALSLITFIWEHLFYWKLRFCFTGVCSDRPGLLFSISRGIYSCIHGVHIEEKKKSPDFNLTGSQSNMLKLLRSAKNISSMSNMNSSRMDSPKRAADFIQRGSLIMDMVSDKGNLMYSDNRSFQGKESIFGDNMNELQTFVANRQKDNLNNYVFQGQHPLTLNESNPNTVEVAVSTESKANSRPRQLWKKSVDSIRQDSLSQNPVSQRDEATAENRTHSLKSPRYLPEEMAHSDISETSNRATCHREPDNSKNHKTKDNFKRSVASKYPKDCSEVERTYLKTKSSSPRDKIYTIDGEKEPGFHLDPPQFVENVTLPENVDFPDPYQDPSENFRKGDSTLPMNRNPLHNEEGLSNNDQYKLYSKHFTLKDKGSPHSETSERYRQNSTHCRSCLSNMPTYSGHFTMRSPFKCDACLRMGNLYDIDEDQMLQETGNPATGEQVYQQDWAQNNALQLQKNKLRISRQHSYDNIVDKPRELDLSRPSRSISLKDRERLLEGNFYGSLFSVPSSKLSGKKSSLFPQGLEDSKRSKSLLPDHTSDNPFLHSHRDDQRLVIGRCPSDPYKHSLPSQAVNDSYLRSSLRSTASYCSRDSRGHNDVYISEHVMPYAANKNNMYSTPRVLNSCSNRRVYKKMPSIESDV

Take `Cl.c1ccc2c(c1)-c1ccccc1C2NC1CCC1` [Compound 3e, N-Cyclobutyl-9H-fluoren-9-amine hydrochloride]: the “h 40 mV GluN1/GluN2B (Hill coefficient)” value on GluN1/GluN2B receptors (40 mV) is on record as 1.10 ± 0.08. Further, the IC50 on GluN1/GluN2B receptors (setting [5]) was 156 ± 14.9 µM; at GluN1/GluN2B receptors (setting [6]), 15.3 ± 2.38 µM; at GluN1/GluN2A receptors (setting [7]) it was 82.6 ± 14.2 µM; on GluN1/GluN2A receptors (setting [8]) it was 8.85 ± 1.21 µM; on hBChE [2], 2.03 ± 0.08 µM. The inhibition at 10 µM on GluN1/GluN2B receptors amounted to 44.8 ± 3.43%; at GluN1/GluN2A receptors, 52.3 ± 4.18%. Moreover, at GluN1/GluN2B receptors (−60 mV), the “h −60 mV GluN1/GluN2B (Hill coefficient)” value was 1.17 ± 0.05. Moreover, on GluN1/GluN2A receptors (40 mV), the “h 40 mV GluN1/GluN2A (Hill coefficient)” value turned out to be 1.28 ± 0.12. On GluN1/GluN2A receptors (−60 mV), the “h −60 mV GluN1/GluN2A (Hill coefficient)” value stood at 1.07 ± 0.05. For the same molecule, in series [1], the IC50 at 24 h was determined as 192 ± 3 µM. In addition, the viability at 50 µM in series [3] (hCMEC/D3 cells) stood at 92.8%. Also, the viability at 100 µM in series [3] (hCMEC/D3 cells) is 92.3%. The apparent permeability (Papp) in “in vitro” amounted to 13.5 ± 1.54 ×10⁻⁶ cm/s. For the same molecule, the “potential of BBB permeation (in words)” value in the series on hCMEC/D3 cell monolayer was “low potential to passively pass the BBB”. The “CNS (+/−)” value with hCMEC/D3 cell monolayer (setting [9]) is reported as “CNS −”.

Turning to `CCCCNC1c2ccccc2-c2ccccc21.Cl` [Compound 3m, N-Butyl-9H-fluoren-9-amine hydrochloride], on GluN1/GluN2B receptors (40 mV), the “h 40 mV GluN1/GluN2B (Hill coefficient)” value is 0.97 ± 0.10. For the same molecule, the IC50 at GluN1/GluN2B receptors (setting [5]) came to 221 ± 12.2 µM; at GluN1/GluN2B receptors (setting [6]) it was 11.7 ± 1.72 µM; on GluN1/GluN2A receptors (setting [7]) it was 114 ± 26.6 µM; at GluN1/GluN2A receptors (setting [8]) it was 14.2 ± 1.6 µM; on hBChE [2], 1.02 ± 0.03 µM. The inhibition at 10 µM came to 51.2 ± 3.24% on GluN1/GluN2B receptors and 36.2 ± 3.73% at GluN1/GluN2A receptors. In addition, the “h −60 mV GluN1/GluN2B (Hill coefficient)” value on GluN1/GluN2B receptors (−60 mV) worked out at 1.12 ± 0.05. The “h 40 mV GluN1/GluN2A (Hill coefficient)” value at GluN1/GluN2A receptors (40 mV) worked out at 1.23 ± 0.13. The “h −60 mV GluN1/GluN2A (Hill coefficient)” value on GluN1/GluN2A receptors (−60 mV) came to 1.19 ± 0.14. Besides, in series [1], the IC50 at 24 h is 140 ± 15 µM. The viability at 50 µM in [3] (hCMEC/D3 cells) came to 82.1%. For the same molecule, the viability at 100 µM in series [3] (hCMEC/D3 cells) amounted to 80.1%. In the series “in vitro”, the Papp is 18.5 ± 2.37 ×10⁻⁶ cm/s. The “potential of BBB permeation (in words)” value with hCMEC/D3 cell monolayer is on record as “corresponds to those of standard drugs with high CNS permeability”. Moreover, the “CNS (+/−)” value with hCMEC/D3 cell monolayer (setting [9]) was “CNS +”.

Turning to `Cl.c1ccc2c(c1)-c1ccccc1C2NC1CCCCC1` [Compound 3c, N-Cyclohexyl-9H-fluoren-9-amine hydrochloride], the inhibition at 10 µM on GluN1/GluN2B receptors was found to be 17.2 ± 2.39%. On GluN1/GluN2A receptors, the inhibition at 10 µM was determined as 41 ± 3.56%. Moreover, the IC50 at 24 h in series [1] was determined as 111 ± 10 µM. At hBChE [2], the “times less active compared to THA (hBChE inhibition)” value turned out to be 20 and the IC50 stood at 0.47 ± 0.01 µM. For the same molecule, in series [3] (hCMEC/D3 cells), the viability at 50 µM is 93.4% and the viability at 100 µM worked out at 82.9%. In addition, in the series “in vitro”, the Papp was determined as 12.3 ± 2.33 ×10⁻⁶ cm/s. Further, in the series with hCMEC/D3 cell monolayer, the “potential of BBB permeation (in words)” value is reported as “low potential to passively pass the BBB”. In the series with hCMEC/D3 cell monolayer (setting [9]), the “CNS (+/−)” value was “CNS −”. On hBChE [4] (nonlinear regression, substrate butyrylthiocholine), this molecule registered a Ki of 0.173 ± 0.025 µM. Further, the type of inhibition entry on hBChE [4] (sum-of-squares F-test, Cornish–Bowden plot) is “competitive inhibition”.

Consider `Nc1c2c(nc3ccccc13)CCCC2` [THA, Tacrine, reference compound], for which, in series [3], the viability at 50 µM amounted to 91.1% and the viability at 100 µM is 94.5%. Besides, the IC50 on NMDA receptor was 20 µM. Moreover, the Papp in the series “in vitro” was determined as 22.3 ± 2.01 ×10⁻⁶ cm/s. Also, the “CNS (+/−)” value with hCMEC/D3 cell monolayer is recorded as “CNS +”.
